Assay [1] deals with T1, human cathepsin F (Homo sapiens, UniProt Q9UBX1).
T1 sequence (Q9UBX1 271-484): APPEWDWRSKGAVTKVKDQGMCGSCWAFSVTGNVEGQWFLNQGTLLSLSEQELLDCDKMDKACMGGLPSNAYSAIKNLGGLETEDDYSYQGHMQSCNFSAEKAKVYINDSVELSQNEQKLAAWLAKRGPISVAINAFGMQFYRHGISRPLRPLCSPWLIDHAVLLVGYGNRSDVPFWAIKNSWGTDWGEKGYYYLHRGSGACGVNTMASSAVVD
Nature of the assay: Cathepsin F assay (hCat F). Type of assay: biochemical. The following applies: human cathepsin F 10 nM, Z-Phe-Arg-AMC 8 μM, pH 5.5, 15 min preincubation; read-out: hCat F IP. The method in brief: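 Human cathepsin F (10 nM) in 50 mM MES pH 5.5, 2.5 mM EDTA, 2.5 mM DTT, 10% DMSO was preincubated 15 min at RT with compounds from a ⅓ DMSO dilution series (500–0.025 μM stocks). Z-Phe-Arg-AMC was added (8 μM as added), and AMC release was read by fluorescence (360/460 nm) for 20 min. Percent inhibition was fitted to a dose-response model.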

Assay [2] concerns the target human cathepsin K (UniProt P43236). Nature of the assay: Cathepsin K Assay (hrbCat K). Type of assay: biochemical. To be noted: human cathepsin K 0.4 nM, Z-Leu-Arg-AMC 8 μM, pH 5.5, 15 min preincubation; read-out: hrbCat K IP. The procedure, abridged: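 Human cathepsin K (0.4 nM) in pH 5.5 MES buffer with EDTA, DTT and 10% DMSO was preincubated 15 min at room temperature with compound from a ⅓ dilution series (500-0.025 μM DMSO stocks). Z-Leu-Arg-AMC (8 μM) was then added, and AMC release was followed fluorometrically (Ex 360/Em 460 nm) for 30 min; inhibition was fitted to a dose-response model.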

With `N#CC1(NC(=O)[C@@H]2CCCC[C@H]2c2oc(-c3ccc(F)cc3)nc2-c2ccc(N3CCS(=O)(=O)CC3)cc2)COC1` [Example 153, (1R,2R)-N-(3-cyanooxetan-3-yl)-2-(4-(4-(1,1-dioxidothiomorpholino)phenyl)-2-(4-fluorophenyl)oxazol-5-yl)cyclohexanecarboxamide], the IC50 in assay [1] was 210 nM; in assay [2], 0.67 nM.
For `CC(C)C(C#N)NC(=O)[C@@H]1CCCC[C@H]1c1oc(-c2ccc(F)cc2)nc1-c1ccc(N2CCS(=O)(=O)CC2)cc1` (single isomer, unassigned) [Example 123, (1R,2R)-N-((S or R)-1-cyano-2-methylpropyl)-2-(4-(4-(1,1-dioxidothiomorpholino)phenyl)-2-(4-fluorophenyl)oxazol-5-yl)cyclohexanecarboxamide] the same measures were 472 nM and 2.13 nM.
For `N#CC(CC(F)(F)F)NC(=O)[C@@H]1CC(F)(F)CC[C@H]1c1oc(C(F)(F)C(F)(F)F)nc1-c1ccc(C(=O)N2CCOCC2)cc1` (single isomer, unassigned) [Example 143, (1R,2R)-N-((S or R)-1-cyano-3,3,3-trifluoropropyl)-5,5-difluoro-2-(4-(4-(morpholine-4-carbonyl)phenyl)-2-(perfluoroethyl)oxazol-5-yl)cyclohexanecarboxamide], the figures for the IC50 in assay [1] and in assay [2] were 14 nM and 0.54 nM, respectively.
For `N#Cc1ccc(-c2nc(-c3ccc(N4CCS(=O)(=O)CC4)cc3)c([C@@H]3CCCC[C@H]3C(=O)NC3(C#N)CC3)o2)cc1` [Example 74, (1R,2R)-N-(1-cyanocyclopropyl)-2-(2-(4-cyanophenyl)-4-(4-(1,1-dioxidothiomorpholino)phenyl)oxazol-5-yl)cyclohexanecarboxamide] the same measures were 645 nM and 1.46 nM.
For `CC1CC1(C#N)NC(=O)[C@@H]1CCCC[C@H]1c1oc(-c2ccc(F)cc2)nc1-c1ccc(N2CCS(=O)(=O)CC2)cc1` (single isomer, unassigned) [Example 134, (1R,2R)-N-((2S or 2R)-1-cyano-2-methylcyclopropyl)-2-(4-(4-(1,1-dioxidothiomorpholino)phenyl)-2-(4-fluorophenyl)oxazol-5-yl)cyclohexanecarboxamide] the same measures were no less than 10000 nM and 2900 nM.
With `N#CC1(NC(=O)[C@@H]2CCCC[C@H]2c2oc(-c3ccc(F)cc3)nc2-c2ccc(N3CC4CC3CS4(=O)=O)cc2)CC1` (mixture of isomers) [Example 87, (1R,2R)-N-(1-cyanocyclopropyl)-2-(4-(4-((1R,4R and 1S,4S)-2,2-dioxido-2-thia-5-azabicyclo[2.2.1]heptan-5-yl)phenyl)-2-(4-fluorophenyl)oxazol-5-yl)cyclohexanecarboxamide], the values for the IC50 in assay [1] and in assay [2] were 1220 nM and 4.09 nM, respectively.
For the compound `N#CC1(NC(=O)[C@@H]2CCCC[C@H]2c2oc(-c3ccccc3C3CC3)nc2-c2ccc(N3CCS(=O)(=O)CC3)cc2)CC1` [Example 79, (1R,2R)-N-(1-cyanocyclopropyl)-2-(2-(2-cyclopropylphenyl)-4-(4-(1,1-dioxidothiomorpholino)phenyl)oxazol-5-yl)cyclohexanecarboxamide], the results for the IC50 in assay [1] and in assay [2] were 124 nM and 0.51 nM, respectively.
The like results for `CC(C)(c1nc(-c2ccc(N3CCS(=O)(=O)CC3)cc2)c([C@@H]2CCCC[C@H]2C(=O)NC2(C#N)CC2)o1)C(F)(F)F` [Example 115, (1R,2R)-N-(1-cyanocyclopropyl)-2-(4-(4-(1,1-dioxidothiomorpholino)phenyl)-2-(1,1,1-trifluoro-2-methylpropan-2-yl)oxazol-5-yl)cyclohexanecarboxamide] were, in that order, 1770 nM and 1.34 nM.

These data come from patent US9458181B2, “Cathepsin cysteine protease inhibitors” (Merck Sharp & Dohme Corp., priority 2013, dated 2016).
